The subject of experiment [1] is Zucker Obese Rats. The experiment is described as follows: Blood glucose lowering in diabetic rats. In kind it is in vivo, rat. Particulars: oral gavage once daily. How it is done: [The source words this procedure for another organism and reports this organism under the same test.] Male Zucker lean rats, 24-28 weeks of age, are fed high fat chow (AIN-93-M formulation) for two weeks to elevate blood glucose. At blood glucose concentrations over 160 mg/dl, a three day pre-study baseline is established by measuring blood glucose daily (at 0700-0800 hrs) via tail vein blood extraction and measurement using a glucometer. Animals are segregated into groups of 5 based on weights and baseline glucose. Compounds are then administered to the animals at various concentrations (30 mg compound/kg body weight or 10 mg compound/kg body weight). The drugs were suspended in 0.5% carboxymethylcellulose (Sigma) in a total gavage volume of 250 μL. Animals are dosed for seven days, once daily in the morning after blood glucose and weight determination. At the end of the seven-day period, the animals are euthanized by exsanguination after isofluorane anesthesia.

Experiment [2] has as its system primary human subcutaneous preadipocytes. In words: Human adipocyte differentiation (oil red-O staining). It counts as cell-based. Particulars: human adipocyte differentiation in presence of insulin and dexamethasone. The protocol:
Assays are carried out on primary human subcutaneous preadipocytes. Preadipocytes are inoculated at high density in preadipocyte medium (DME/F-10, 1:1, (v/v) containing 10% fetal calf serum) and maintained overnight for attachment. Drug treatment is initiated the second day by changing to serum free medium containing test compounds. The basal medium, which is used as the negative control, contains DME/F-10, biotin (33 μM), pantothenate (17 μM), insulin (100 nM), and dexamethasone (1 μM) and BRL 49653 is included as a positive control. The culture is maintained for 14 days with the compound treatment during the first five days. At the end of the culture, cells are fixed in 5% formalin and stained with oil red-O dye. The dye is extracted by isopropanol and quantitated by measure the optical density at 500 nm. EC50 values found in Table 1 reflect the human adipocyte differentiation of the compound in presence of insulin and dexamethasone.

For experiment [3], the target named is T1, LBD (ligand binding domain) of the PPAR-γ receptor (Homo sapiens, UniProt P37231).
T1 sequence (P37231 238-503 limits assumed): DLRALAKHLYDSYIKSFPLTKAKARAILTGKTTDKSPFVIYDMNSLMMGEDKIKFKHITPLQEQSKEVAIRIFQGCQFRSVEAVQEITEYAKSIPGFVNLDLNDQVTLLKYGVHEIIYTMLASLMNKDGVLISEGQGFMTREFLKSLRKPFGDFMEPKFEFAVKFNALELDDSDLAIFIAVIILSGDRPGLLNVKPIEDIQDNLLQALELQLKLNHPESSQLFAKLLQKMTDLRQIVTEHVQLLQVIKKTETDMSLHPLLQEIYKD
The experiment is described as follows: Binding to PPAR-γ receptor (inhibition of 3H-PPAR-γ ligand binding to LBD). Conditions: 8 nM 3H-PPAR ligand, 210 ng LBD/well, 2 hours. The protocol: Binding to PPAR-γ Receptor Compounds are assayed for their ability to inhibit the binding of 3H-PPAR-γ ligand to the LBD (ligand binding domain) of the PPAR-γ receptor. Compounds are tested at 4 concentrations (1 μM to 1 nM) in triplicate. Compounds are incubated with H3-PPAR ligand (8 nM final concentration) and LBD (210 ng/assay well) in assay buffer (50 mM Tris pH8.0. 50 mM KCL, 2 mM EDTA, 0.3% CHAPS, 0.1 mg/ml BSA, 10 mM DTT) for 2 hours with gentle shaking. Non-specific binding is measured in the presence of 10 μM excess cold competitor. Bound ligand is separated using gel filtration plates (Edge Biosystems 31909) and captured on 96 well Wallac MicroBeta plates (1450-5150 by centrifugation for 5 minutes at 2500 rpm. Radioactivity is measured in a Wallac Micro Beta counter. Table 2 gives the IC50 values of compounds 1 and 2.

The mark [4] stands for this setting: Treatment Day 0 (baseline), 30 or 10 mg/kg (dose not given).
Where [5] appears, read: 14 day culture, compound first five days, read-out: EC50 Differentiation.
[6] abbreviates: read-out: EC50 Inhibition of Differentiation.

pEC50, pIC50: −log10 of the molar value. Like-named read-outs stand apart in the source and are kept apart here.

As for `O=C(NCCCc1ccccc1)c1ccc(C[C@H](NCc2ccccc2)C(=O)O)cc1` [Compound 1, (2S)-2-[benzylamino]-3-{4-[N-(3-phenylpropyl)carbamoyl]phenyl}propanoic acid], the “Blood Glucose (mg/dl ± SEM)” value amounted to 133 ± 11 mg/dL in experiment [1] (setting [4]); 134 ± 11 mg/dL in experiment [1] (Treatment Day 1); 105 ± 7 mg/dL in experiment [1] (Treatment Day 2); 105 ± 4 mg/dL in experiment [1] (Treatment Day 3); 97 ± 16 mg/dL in experiment [1] (Treatment Day 4); 113 ± 3 mg/dL in experiment [1] (Treatment Day 5). The “Blood Glucose (mg/dl ± SEM)” value was 105 ± 6 mg/dL in experiment [1] (Treatment Day 6) and 104 ± 8 mg/dL in experiment [1] (Treatment Day 7). Also, the figures for the pEC50 in experiment [2] (setting [5]) and in experiment [2] (setting [6]) were 6.82 and less than 5.00, respectively. Moreover, in experiment [3], the pIC50 (usually the negative decadic logarithm of the IC50, by convention in mol/L) is 5.77.
With `CN(C(=O)c1ccc(C[C@H](NCc2ccccc2)C(=O)O)cc1)C1CCCC1Sc1ccccc1` (stereo partly drawn) [Compound 2, (2S)-3-{4-[N-methyl-N(2-phenylthiocyclopentyl)carbamoyl]phenyl}-2-[benzylamino]propanoic acid], the “Blood Glucose (mg/dl ± SEM)” value in experiment [1] (setting [4]) is 133 ± 11 mg/dL; in experiment [1] (Treatment Day 1) it was 136 ± 5 mg/dL; in experiment [1] (Treatment Day 2) it was 104 ± 1 mg/dL; in experiment [1] (Treatment Day 3) it was 100 ± 9 mg/dL; in experiment [1] (Treatment Day 4), 93 ± 6 mg/dL; in experiment [1] (Treatment Day 5) it was 100 ± 4 mg/dL. The “Blood Glucose (mg/dl ± SEM)” value in experiment [1] (Treatment Day 6) was found to be 101 ± 5 mg/dL; in experiment [1] (Treatment Day 7) it was 92 ± 6 mg/dL. Moreover, the pEC50 (in general, the EC50 on a negative log10 scale, so that one unit is a factor of ten) was 6.76 in experiment [2] (setting [5]) and less than 5.00 in experiment [2] (setting [6]). In addition, in experiment [3], the pIC50 was 5.48.
As to `CN(CCOc1ccc(CC2SC(=O)NC2=O)cc1)c1ccccn1` (stereo not drawn) [Rosiglitizone, reference compound], the pEC50 in experiment [2] (setting [5]) was 7.00; in experiment [2] (setting [6]), less than 5.00.

Values taken from patent US6713514B1, “PPAR-γ agonists as agents for the treatment of type II diabetes” (Lexicon Pharmaceuticals, Inc., priority 1999, dated 2004).
